Laboratory results published in patent publication US10383336B2, “Solutions employing herbicides and buffered amine oxides to kill weeds and related methods” (priority 2015, dated 2019).

What was measured:
Grass (mixed types) = assay: Field trial of formulation components, kill rate 1 year after application (TABLE 2, Jun. 14, 2005, near Warren Pa.); type: in vivo; conditions: no herbicide; single component at % weight: Ethylene Glycol 0.07, 5 Mol Borax 0.044, Boric Acid 0.037, Barlox 12 0.305
Description: (§1) On Jun. 14, 2005, further trials were conducted near Warren Pa., USA to evaluate the contribution of certain formulation components to herbicide performance from the Jun. 2, 2004 Buffered Amine Oxide system. The same field trial methods were used. The control was distilled water.
(§2) The two herbicides which were tested were 2,4-D and Glyphosate. They were used in concentrations of 50:1 and 200:1. The vegetations tested were raspberry and grass. The components of the various elements employed in the buffered amine oxide formula are expressed in weight percent of the total buffered amine oxide formula. […] The first three components were tested at 200:1 strength with the Ethylene Glycol used alone, the Ethylene Glycol used in combination with 5 Mol Borax and Ethylene Glycol, 5 Mol Borax and Boric Acid used in combination. None of these killed the weeds.
(§3) Where a “0” appears in a block in TABLE 2, this means there were no kills. Where a block is blank, this means that no measurement was taken.

Raspberry = assay: as above; type: in vivo; conditions: no herbicide; single component at % weight: Ethylene Glycol 0.07, 5 Mol Borax 0.044, Boric Acid 0.037, Barlox 12 0.305
Description: as §1, §2, §3

SMILES: O.O.O.O.O.[Na+].[Na+].[O-]B1OB2OB([O-])OB(O1)O2 [5 Mol Borax]
- Kill Rate % 1 Year After Application, Grass (Grass (mixed types)): 0%
- Kill Rate % 1 Year After Application, Raspberry (Raspberry): 0%

SMILES: OB(O)O [Boric Acid]
- Kill Rate % 1 Year After Application, Grass (Grass (mixed types)): 0%
- Kill Rate % 1 Year After Application, Raspberry (Raspberry): 0%

SMILES: OCCO [Ethylene Glycol]
- Kill Rate % 1 Year After Application, Grass (Grass (mixed types)): 0%
- Kill Rate % 1 Year After Application, Raspberry (Raspberry): 0%
